Values joined by “and” are separate entries in the source; they are usually repeats but may differ in a detail not shown here. Identical values can stand only once. Inconclusive results and toxic doses are left out. Rule for the calls: active = survival T/C of 150% or more; inactive = T/C below 125% in these data.
System: BDF1 mice, B16 melanoma ip, median survival T/C
Assay: NCI In Vivo Anticancer Drug Screen. Data for tumor model B16 Melanoma (intraperitoneal) in B6D2F1 (BDF1) mice
Details: endpoint: median survival time, higher = longer survival
How it was run: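 Mice with transplantable tumors; drug vs vehicle groups; endpoint survival or tumor size; value = T/C.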

[1] = dose: 2.5 mg/kg/injection, schedule: Q01DX009 (ip), vehicle: saline
[2] = dose: 25.0 mg/kg/injection, schedule: Q01DX009 (ip), vehicle: saline with Tween-80
[3] = dose: 50.0 mg/kg/injection, schedule: Q01DX009 (ip), vehicle: saline with Tween-80
[4] = dose: 100.0 mg/kg/injection, schedule: Q01DX009 (ip), vehicle: saline with Tween-80
[5] = dose: 50.0 mg/kg/injection, schedule: Q01DX009 (ip), vehicle: Klucel (hydroxypropylcellulose) (HPC)
[6] = dose: 100.0 mg/kg/injection, schedule: Q01DX009 (ip), vehicle: Klucel (hydroxypropylcellulose) (HPC)
[7] = dose: 12.5 mg/kg/injection, schedule: Q01DX009 (ip), vehicle: Klucel (hydroxypropylcellulose) (HPC)
[8] = dose: 25.0 mg/kg/injection, schedule: Q01DX009 (ip), vehicle: Klucel (hydroxypropylcellulose) (HPC)
[9] = dose: 0.63 mg/kg/injection, schedule: Q01DX009 (ip), vehicle: other
[10] = dose: 100.0 mg/kg/injection, schedule: Q04DX003 (ip), vehicle: saline
[11] = dose: 200.0 mg/kg/injection, schedule: Q04DX003 (ip), vehicle: saline
[12] = dose: 400.0 mg/kg/injection, schedule: Q04DX003 (ip), vehicle: saline
[13] = dose: 12.5 mg/kg/injection, schedule: Q01DX009 (ip), vehicle: saline with Tween-80
[14] = dose: 200.0 mg/kg/injection, schedule: Q01DX009 (ip), vehicle: saline with Tween-80

Measured: T/C

Nc1nc(=S)c2ncn(C3OC(COC(=O)c4ccc(Cl)cc4)C(OC(=O)c4ccc(Cl)cc4)C3OC(=O)c3ccc(Cl)cc3)c2[nH]1 (configuration not stated)
inactive: dose: 18.75 mg/kg/injection, schedule: Q01DX009 (ip), vehicle: Klucel (hydroxypropylcellulose) (HPC) 116 % of control | dose: 37.5 mg/kg/injection, schedule: Q01DX009 (ip), vehicle: Klucel (hydroxypropylcellulose) (HPC) 120 % of control | dose: 75.0 mg/kg/injection, schedule: Q01DX009 (ip), vehicle: Klucel (hydroxypropylcellulose) (HPC) 116 % of control | dose: 150.0 mg/kg/injection, schedule: Q01DX009 (ip), vehicle: Klucel (hydroxypropylcellulose) (HPC) 109 % of control

CC(C)(C#N)N1CCCCC1
inactive: dose: 0.03 mg/kg/injection, schedule: Q01DX009 (ip), vehicle: saline 97 % of control | dose: 0.07 mg/kg/injection, schedule: Q01DX009 (ip), vehicle: saline 104 % of control | dose: 0.15 mg/kg/injection, schedule: Q01DX009 (ip), vehicle: saline 98 % of control | [1] 102 % of control

c1cn[nH]c1
inactive: [2] 97 % of control | [3] 96 % of control | [4] 91 % of control

C[As](C)Sc1ccnc(S[As](C)C)n1
inactive: [5] 100 % of control | [6] 119 % of control

COc1cc2cc[n+](C)c(Cc3ccccc3)c2cc1OC
inactive: dose: 3.12 mg/kg/injection, schedule: Q01DX009 (ip), vehicle: Klucel (hydroxypropylcellulose) (HPC) 102 % of control | dose: 6.25 mg/kg/injection, schedule: Q01DX009 (ip), vehicle: Klucel (hydroxypropylcellulose) (HPC) 102 % of control | [7] 102 % of control | [8] 104 % of control

C/C=C/C=C\C1OC(O)([C@H](CC)C(=O)NC/C=C/C=C(\C)[C@H](OC)C(C)C2OC(\C=C/C=C/C=C(\C)C(=O)c3c(O)ccn(C)c3=O)[C@H](O)[C@@H]2O)C(O)C(O)C1(C)C (some centres not stated)
inactive: dose: 25.0 mg/kg/injection, schedule: Q01DX009 (ip), vehicle: saline 102 % of control | dose: 50.0 mg/kg/injection, schedule: Q01DX009 (ip), vehicle: saline 89 % of control | dose: 100.0 mg/kg/injection, schedule: Q01DX009 (ip), vehicle: saline 91 % of control | dose: 200.0 mg/kg/injection, schedule: Q01DX009 (ip), vehicle: saline 97 % of control

O=C1NC(=O)C([N+](=O)[O-])=C(O)C1=O
inactive: dose: 75.0 mg/kg/injection, schedule: Q04DX003 (ip), vehicle: other 105 % of control | dose: 150.0 mg/kg/injection, schedule: Q04DX003 (ip), vehicle: other 95 % of control

COC1C(C)OC(OC2CC(C)(O)Cc3cc4c(c(O)c32)C(=O)c2c(O)cc3c(c2C4=O)OC2OC3(C)C(O)C(N(C)C)C2O)C(OC)C1(C)OC (configuration not stated)
inactive: dose: 0.16 mg/kg/injection, schedule: Q01DX009 (ip), vehicle: other 95 % of control
active: [9] 159 % of control | dose: 5.4 mg/kg/injection, schedule: Q04DX003 (ip), vehicle: lactic acid 195 % of control | dose: 9.0 mg/kg/injection, schedule: Q04DX003 (ip), vehicle: lactic acid 171 % of control

O=C1C(Cl)=C(N2CC2)C(=O)C(Cl)=C1N1CC1
inactive: dose: 0.62 mg/kg/injection, schedule: Q01DX009 (ip), vehicle: Klucel (hydroxypropylcellulose) (HPC) 105 % of control | dose: 1.25 mg/kg/injection, schedule: Q01DX009 (ip), vehicle: Klucel (hydroxypropylcellulose) (HPC) 105 % of control | dose: 2.5 mg/kg/injection, schedule: Q01DX009 (ip), vehicle: Klucel (hydroxypropylcellulose) (HPC) 114 % of control | [1] 115 % of control | dose: 5.0 mg/kg/injection, schedule: Q01DX009 (ip), vehicle: Klucel (hydroxypropylcellulose) (HPC) 123 % of control | dose: 10.0 mg/kg/injection, schedule: Q01DX009 (ip), vehicle: Klucel (hydroxypropylcellulose) (HPC) 124 % of control | dose: 20.0 mg/kg/injection, schedule: Q01DX009 (ip), vehicle: Klucel (hydroxypropylcellulose) (HPC) 124 % of control

c1cc(OCC2CO2)ccc1OCC1CO1 (configuration not stated)
inactive: [7] 100 % of control | [8] 105 % of control | [5] 110 % of control | [6] 120 % of control

FC(F)(F)C(F)(Cl)C(Cl)(Cl)C(F)(F)F (configuration not stated)
inactive: [10] 92 % of control | [11] 104 % of control | [12] 97 % of control

BrCC[Se]c1ccccc1
inactive: dose: 6.25 mg/kg/injection, schedule: Q01DX009 (ip), vehicle: saline with Tween-80 103 % of control | [13] 95 % of control | [2] 96 % of control | [3] 104 % of control | [4] 89 % of control

COc1cccc2c1C(=O)c1c(O)c3c(c(O)c1C2=O)C[C@@](O)(C(=O)COC(=O)Cc1ccccc1)C[C@@H]3OC1CC(N)C(O)C(C)O1 (some centres not stated)
active: dose: 0.5 mg/kg/injection, schedule: Q01DX009 (ip), vehicle: saline with Tween-80 151 % of control and 186 % of control | dose: 1.0 mg/kg/injection, schedule: Q01DX009 (ip), vehicle: saline with Tween-80 165 % of control and 186 % of control | dose: 2.0 mg/kg/injection, schedule: Q01DX009 (ip), vehicle: saline with Tween-80 172 % of control and 232 % of control

O=C(O)COc1ccc([N+](=O)[O-])cc1
inactive: [4] 96 % of control | [14] 87 % of control

COc1ccc(Cl)cc1NC(=O)C(Br)C(Br)C(=O)O (configuration not stated)
inactive: [13] 102 % of control | [2] 105 % of control | [3] 95 % of control | [4] 89 % of control | [14] 91 % of control

CC(=O)C1(O)CCCCC1
inactive: [10] 95 % of control | [11] 100 % of control | [12] 100 % of control

CC(=Nc1ccccc1)C1=C(O)C(Cc2ccccc2)NC1=O (configuration not stated)
inactive: [13] 100 % of control | [2] 102 % of control | [3] 106 % of control | [4] 98 % of control and 100 % of control

CN(Cc1cnc2nc(N)nc(N)c2n1)c1ccc(C(=O)NC(CCC(=O)O)C(=O)O)cc1Br (configuration not stated)
inactive: dose: 0.17 mg/kg/injection, schedule: Q01DX011 (ip), vehicle: saline 101 % of control | dose: 0.35 mg/kg/injection, schedule: Q01DX011 (ip), vehicle: saline 105 % of control | [9] 101 % of control | dose: 0.7 mg/kg/injection, schedule: Q01DX011 (ip), vehicle: saline 101 % of control | dose: 1.25 mg/kg/injection, schedule: Q01DX009 (ip), vehicle: other 113 % of control

CCCCCCCCCCCCCCCCCCOCCCCCCCCCCCCCCCCCC
inactive: [4] 90 % of control | dose: 400.0 mg/kg/injection, schedule: Q01DX009 (ip), vehicle: saline with Tween-80 88 % of control

Cn1cnc([N+](=O)[O-])c1[Se]c1nc(N)nc2nc[nH]c12
active: dose: 12.5 mg/kg/injection, schedule: Q01DX009 (ip), vehicle: water 150 % of control | dose: 25.0 mg/kg/injection, schedule: Q01DX009 (ip), vehicle: water 153 % of control and 158 % of control
inactive: dose: 3.12 mg/kg/injection, schedule: Q01DX009 (ip), vehicle: water 109 % of control | dose: 6.25 mg/kg/injection, schedule: Q01DX009 (ip), vehicle: water 117 % of control | dose: 11.0 mg/kg/injection, schedule: Q01DX009 (ip), vehicle: other 116 % of control | dose: 16.5 mg/kg/injection, schedule: Q01DX009 (ip), vehicle: other 117 % of control

CN1CCC23c4c5ccc(O)c4OC2C(O)C=CC3C1C5 (configuration not stated)
inactive: dose: 32.0 mg/kg/injection, schedule: Q01DX009 (ip), vehicle: saline 114 % of control | dose: 64.0 mg/kg/injection, schedule: Q01DX009 (ip), vehicle: saline 111 % of control | dose: 128.0 mg/kg/injection, schedule: Q01DX009 (ip), vehicle: saline 100 % of control | dose: 256.0 mg/kg/injection, schedule: Q01DX009 (ip), vehicle: saline 94 % of control

CSc1ncnc2nc[nH]c12
inactive: [5] 104 % of control | [6] 100 % of control | dose: 200.0 mg/kg/injection, schedule: Q01DX009 (ip), vehicle: Klucel (hydroxypropylcellulose) (HPC) 102 % of control | dose: 400.0 mg/kg/injection, schedule: Q01DX009 (ip), vehicle: Klucel (hydroxypropylcellulose) (HPC) 88 % of control

NC(N)=Nc1ccc(C(=O)O)cc1
inactive: dose: 33.0 mg/kg/injection, schedule: Q01DX009 (ip), vehicle: saline with Tween-80 100 % of control | [3] 96 % of control | dose: 75.0 mg/kg/injection, schedule: Q01DX009 (ip), vehicle: saline with Tween-80 96 % of control
